Data on eleven compounds can be found in patent US10098351B2, “Herbicidal compounds” (SYNGENTA PARTICIPATIONS AG, priority 2014, dated 2018).

SMILES strings stand for the structures.

Type in all cases: in vivo
Assay [1] relates to Abutilon theophrasti. Nature of the assay: Pre-emergence herbicidal activity, ABUTH. The note with it: application pre-emergence, 1000 g/Ha, evaluated after 13 days; 5=total damage to plant, 0=no damage to plant. As to the method:
(§1) Seeds of a variety of test species were sown in standard soil in pots. After cultivation for one day (pre-emergence) under controlled conditions in a glasshouse (at 24/16° C., day/night; 14 hours light; 65% humidity), the plants were sprayed with an aqueous spray solution derived from the formulation of the technical active ingredient in acetone/water (50:50) solution containing 0.5% Tween 20 (polyoxyethelyene sorbitan monolaurate, CAS RN 9005-64-5). The test plants were then grown in a glasshouse under controlled conditions (at 24/16° C., day/night; 14 hours light; 65% humidity) and watered twice daily. After 13 days, the test was evaluated (5=total damage to plant; 0=no damage to plant).

Assay [2] deals with Amaranthus retroflexus. Nature of the assay: Pre-emergence herbicidal activity, AMARE. To be noted: application pre-emergence, 1000 g/Ha, evaluated after 13 days; 5=total damage to plant, 0=no damage to plant. As to the method: as §1
Assay [3] concerns Lolium perenne. Nature of the assay: Pre-emergence herbicidal activity, LOLPE. The note with it: application pre-emergence, 1000 g/Ha, evaluated after 13 days; 5=total damage to plant, 0=no damage to plant. As to the method:
as §1

For assay [4], the system named is Setaria faberi. In words: Pre-emergence herbicidal activity, SETFA. To be noted: application pre-emergence, 1000 g/Ha, evaluated after 13 days; 5=total damage to plant, 0=no damage to plant. On the procedure: as §1
Assay [5] deals with Echinochloa crus-galli. Nature of the assay: Pre-emergence herbicidal activity, ECHCG. To be noted: application pre-emergence, 1000 g/Ha, evaluated after 13 days; 5=total damage to plant, 0=no damage to plant. As to the method: as §1
Assay [6] relates to Zea mays. Nature of the assay: Pre-emergence herbicidal activity, ZEAMX. The note with it: application pre-emergence, 1000 g/Ha, evaluated after 13 days; 5=total damage to plant, 0=no damage to plant. As to the method:
as §1

Assay [7] has as its system Abutilon theophrasti. In words: Post-emergence herbicidal activity, ABUTH. To be noted: application post-emergence, 1000 g/Ha, evaluated after 13 days; 5=total damage to plant, 0=no damage to plant. As to the method:
(§2) Seeds of a variety of test species were sown in standard soil in pots. After 8 days cultivation (post-emergence) under controlled conditions in a glasshouse (at 24/16° C., day/night; 14 hours light; 65% humidity), the plants were sprayed with an aqueous spray solution derived from the formulation of the technical active ingredient in acetone/water (50:50) solution containing 0.5% Tween 20 (polyoxyethelyene sorbitan monolaurate, CAS RN 9005-64-5). The test plants were then grown in a glasshouse under controlled conditions (at 24/16° C., day/night; 14 hours light; 65% humidity) and watered twice daily. After 13 days, the test was evaluated (5=total damage to plant; 0=no damage to plant).

Assay [8] deals with Amaranthus retroflexus. Nature of the assay: Post-emergence herbicidal activity, AMARE. The note with it: application post-emergence, 1000 g/Ha, evaluated after 13 days; 5=total damage to plant, 0=no damage to plant. As to the method: as §2
In assay [9] the test system is Lolium perenne. In words: Post-emergence herbicidal activity, LOLPE. To be noted: application post-emergence, 1000 g/Ha, evaluated after 13 days; 5=total damage to plant, 0=no damage to plant. As to the method: as §2
Assay [10] concerns Setaria faberi. In words: Post-emergence herbicidal activity, SETFA. To be noted: application post-emergence, 1000 g/Ha, evaluated after 13 days; 5=total damage to plant, 0=no damage to plant. On the procedure:
as §2

In assay [11] the test system is Echinochloa crus-galli. Nature of the assay: Post-emergence herbicidal activity, ECHCG. The note with it: application post-emergence, 1000 g/Ha, evaluated after 13 days; 5=total damage to plant, 0=no damage to plant. As to the method:
as §2

The test system of assay [12] is Zea mays. Nature of the assay: Post-emergence herbicidal activity, ZEAMX. To be noted: application post-emergence, 1000 g/Ha, evaluated after 13 days; 5=total damage to plant, 0=no damage to plant. As to the method: as §2

As to `CON1C(=O)N(c2ncc(C(F)(F)F)s2)C(O)C1C` (centres unmarked) [Compound B7], the ABUTH damage score in the assay with Abutilon theophrasti [1] and in the assay on Abutilon theophrasti [7] was 5 each time. In addition, the AMARE damage score with Amaranthus retroflexus [2] and in the assay with Amaranthus retroflexus [8] was 5 in each case. Moreover, the LOLPE damage score with Lolium perenne [3] is given as 4; in the assay on Lolium perenne [9], 5. In addition, the SETFA damage score in the assay on Setaria faberi [4] and with Setaria faberi [10] was 5 each time. Also, the ECHCG damage score with Echinochloa crus-galli [5] turned out to be 4; in the assay with Echinochloa crus-galli [11], 5. The results for the ZEAMX damage score in the assay on Zea mays [6] and in the assay on Zea mays [12] were 3 and 4, respectively.

`COC1C(O)N(c2ncc(C(F)(F)F)s2)C(=O)N1C` (centres unmarked) [Compound A3]: the ABUTH damage score in the assay with Abutilon theophrasti [1] and in the assay with Abutilon theophrasti [7] was 5 each time. In addition, the AMARE damage score in the assay with Amaranthus retroflexus [2] and with Amaranthus retroflexus [8] was 5 throughout. The LOLPE damage score in the assay with Lolium perenne [3] and in the assay on Lolium perenne [9] was 5 in each case. The SETFA damage score in the assay on Setaria faberi [4] and in the assay on Setaria faberi [10] was 5 in each case. For the same compound, the ECHCG damage score in the assay on Echinochloa crus-galli [5] and in the assay with Echinochloa crus-galli [11] was 5 in each case. Moreover, the results for the ZEAMX damage score with Zea mays [6] and in the assay with Zea mays [12] were 2 and 4, respectively.

As for `CCO[C@H]1C(O)N(c2ncc(C(F)(F)F)s2)C(=O)N1C` (some centres unmarked) [Compound A9], the ABUTH damage score in the assay on Abutilon theophrasti [1] worked out at 2; in the assay on Abutilon theophrasti [7] it was 3. The AMARE damage score in the assay on Amaranthus retroflexus [2] and in the assay on Amaranthus retroflexus [8] was 5 throughout. Also, the LOLPE damage score amounted to 2 in the assay with Lolium perenne [3] and 3 in the assay with Lolium perenne [9]. The SETFA damage score in the assay with Setaria faberi [4] and in the assay with Setaria faberi [10] was 4 in each case. Also, the results for the ECHCG damage score with Echinochloa crus-galli [5] and in the assay with Echinochloa crus-galli [11] were 1 and 2, respectively. In addition, the ZEAMX damage score in the assay on Zea mays [6] is on record as 1; with Zea mays [12], 2.

With `C[C@@H]1C(O)N(c2ncc(C(F)(F)F)s2)C(=O)N1C` (mixture of isomers) [Compound A6], the ABUTH damage score in the assay on Abutilon theophrasti [1] and in the assay on Abutilon theophrasti [7] was 5 in each case. Moreover, the AMARE damage score with Amaranthus retroflexus [2] and with Amaranthus retroflexus [8] was 5 in each case. Also, the LOLPE damage score with Lolium perenne [3] and in the assay with Lolium perenne [9] was 5 each time. For the same compound, the SETFA damage score with Setaria faberi [4] and in the assay with Setaria faberi [10] was 5 in each case. Further, the ECHCG damage score in the assay with Echinochloa crus-galli [5] and in the assay on Echinochloa crus-galli [11] was 5 in each case. For the same compound, the ZEAMX damage score with Zea mays [6] was determined as 4; in the assay with Zea mays [12], 5.

As for `CCCOC1C(O)N(c2ncc(C(F)(F)F)s2)C(=O)N1C` (centres unmarked) [Compound A1], the ABUTH damage score in the assay on Abutilon theophrasti [1] and in the assay on Abutilon theophrasti [7] was 5 each time. The AMARE damage score with Amaranthus retroflexus [2] and with Amaranthus retroflexus [8] was 5 in each case. For the same compound, the LOLPE damage score stood at 4 in the assay on Lolium perenne [3] and 5 in the assay with Lolium perenne [9]. Moreover, the SETFA damage score came out at 4 in the assay with Setaria faberi [4] and 5 with Setaria faberi [10]. The ECHCG damage score in the assay on Echinochloa crus-galli [5] and with Echinochloa crus-galli [11] was 5 throughout. The ZEAMX damage score in the assay on Zea mays [6] is 1; in the assay on Zea mays [12], 3.

As to `CN1CC(O)N(c2ncc(C(F)(F)F)s2)C1=O` (centres unmarked) [Compound A5, 4-hydroxy-1-methyl-3-[5-(trifluoromethyl)thiazol-2-yl]imidazolidin-2-one], the ABUTH damage score in the assay on Abutilon theophrasti [1] and in the assay with Abutilon theophrasti [7] was 5 throughout. The AMARE damage score in the assay on Amaranthus retroflexus [2] and in the assay on Amaranthus retroflexus [8] was 5 throughout. The LOLPE damage score in the assay on Lolium perenne [3] and with Lolium perenne [9] was 5 throughout. For the same compound, the SETFA damage score in the assay with Setaria faberi [4] and with Setaria faberi [10] was 5 each time. The ECHCG damage score in the assay with Echinochloa crus-galli [5] came out at 4; in the assay on Echinochloa crus-galli [11], 5. Moreover, the ZEAMX damage score is recorded as 2 in the assay on Zea mays [6] and 5 with Zea mays [12].

For the compound `CN1CC(O)N(c2ncc(C(C)(C)C)s2)C1=O` (centres unmarked) [Compound A7], the ABUTH damage score in the assay with Abutilon theophrasti [1] and in the assay with Abutilon theophrasti [7] was 5 in each case. Moreover, the AMARE damage score in the assay on Amaranthus retroflexus [2] and in the assay on Amaranthus retroflexus [8] was 5 throughout. For the same compound, the LOLPE damage score in the assay on Lolium perenne [3] was 4; in the assay on Lolium perenne [9] it was 5. Moreover, the SETFA damage score in the assay with Setaria faberi [4] and with Setaria faberi [10] was 5 each time. The ECHCG damage score worked out at 4 in the assay on Echinochloa crus-galli [5] and 5 in the assay with Echinochloa crus-galli [11]. The ZEAMX damage score came to 3 in the assay on Zea mays [6] and 5 in the assay on Zea mays [12].

As for `CCO[C@@H]1C(O)N(c2ncc(C(F)(F)F)s2)C(=O)N1C` (some centres unmarked) [Compound A8], the ABUTH damage score in the assay on Abutilon theophrasti [1] and with Abutilon theophrasti [7] was 5 in each case. Moreover, the AMARE damage score in the assay with Amaranthus retroflexus [2] and with Amaranthus retroflexus [8] was 5 in each case. For the same compound, the LOLPE damage score with Lolium perenne [3] is reported as 4; in the assay on Lolium perenne [9], 5. Also, the SETFA damage score in the assay on Setaria faberi [4] and in the assay on Setaria faberi [10] was 5 throughout. Further, the ECHCG damage score with Echinochloa crus-galli [5] and in the assay on Echinochloa crus-galli [11] was 5 in each case. Further, the ZEAMX damage score turned out to be 3 in the assay with Zea mays [6] and 5 in the assay with Zea mays [12].

As for `CCOC1C(O)N(c2ncc(C(C)C)s2)C(=O)N1C` (centres unmarked) [Compound A10], the ABUTH damage score with Abutilon theophrasti [1] came to 0; with Abutilon theophrasti [7] it was 4. In addition, the AMARE damage score with Amaranthus retroflexus [2] is recorded as 4; in the assay on Amaranthus retroflexus [8], 3. Further, the LOLPE damage score with Lolium perenne [3] is 0. Further, the SETFA damage score in the assay with Setaria faberi [4] was found to be 0; in the assay on Setaria faberi [10], 2. For the same compound, the ECHCG damage score in the assay with Echinochloa crus-galli [5] was found to be 0; in the assay on Echinochloa crus-galli [11], 2. In addition, the ZEAMX damage score in the assay with Zea mays [6] and in the assay with Zea mays [12] was 0 each time.

On to `CN1C(=O)N(c2ncc(C(F)(F)F)s2)C(O)C1O` (centres unmarked) [Compound A4, 4,5-dihydroxy-1-methyl-3-[5-(trifluoromethyl)thiazol-2-yl]imidazolidin-2-one], for which the ABUTH damage score in the assay with Abutilon theophrasti [1] and with Abutilon theophrasti [7] was 5 in each case. For the same compound, the AMARE damage score with Amaranthus retroflexus [2] and with Amaranthus retroflexus [8] was 5 throughout. For the same compound, the LOLPE damage score with Lolium perenne [3] came to 4; in the assay on Lolium perenne [9] it was 5. In addition, the SETFA damage score in the assay with Setaria faberi [4] is 4; in the assay on Setaria faberi [10] it was 5. The ECHCG damage score with Echinochloa crus-galli [5] and in the assay on Echinochloa crus-galli [11] was 5 throughout. The ZEAMX damage score with Zea mays [6] is 3; in the assay with Zea mays [12], 4.

For the compound `CCOC1C(O)N(c2ncc(C(F)(F)F)s2)C(=O)N1C` (centres unmarked) [Compound A2, 5-ethoxy-4-hydroxy-1-methyl-3-[5-(trifluoromethyl)thiazol-2-yl]imidazolidin-2-one], the ABUTH damage score in the assay on Abutilon theophrasti [1] and in the assay on Abutilon theophrasti [7] was 5 in each case. Moreover, the AMARE damage score in the assay with Amaranthus retroflexus [2] and in the assay with Amaranthus retroflexus [8] was 5 in each case. The LOLPE damage score in the assay on Lolium perenne [3] and in the assay on Lolium perenne [9] was 5 throughout. Moreover, the SETFA damage score with Setaria faberi [4] and in the assay on Setaria faberi [10] was 5 throughout. Moreover, the ECHCG damage score with Echinochloa crus-galli [5] and in the assay on Echinochloa crus-galli [11] was 5 in each case. Also, the ZEAMX damage score with Zea mays [6] is 3; with Zea mays [12], 5.
